Reference: PubChem BioAssay AID328 (DTP/NCI, 2004)
Where “and” joins values, the source holds several entries; their conditions need not be identical. Equal values may be shown once. Inconclusive results and toxic doses are left out.

Test system: BDF1 mice, P388 leukemia ip, median survival T/C
Assay: NCI In Vivo Anticancer Drug Screen. Data for tumor model P388 Leukemia (intraperitoneal) in B6D2F1 (BDF1) mice
Conditions: endpoint: median survival time, higher = longer survival
Outline: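 Transplantable tumour in mice; compound vs vehicle dosing; survival scored; ratio of treated to control reported.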

[1] = dose: 100.0 mg/kg/injection, schedule: Q01DX009 (ip), vehicle: other
[2] = dose: 200.0 mg/kg/injection, schedule: Q01DX009 (ip), vehicle: other
[3] = dose: 50.0 mg/kg/injection, schedule: Q01DX009 (ip), vehicle: saline with Tween-80
[4] = dose: 100.0 mg/kg/injection, schedule: Q01DX009 (ip), vehicle: saline with Tween-80
[5] = dose: 200.0 mg/kg/injection, schedule: Q01DX009 (ip), vehicle: saline with Tween-80
[6] = dose: 50.0 mg/kg/injection, schedule: Q01DX009 (ip), vehicle: Klucel (hydroxypropylcellulose) (HPC)
[7] = dose: 12.5 mg/kg/injection, schedule: Q01DX009 (ip), vehicle: Klucel (hydroxypropylcellulose) (HPC)
[8] = dose: 25.0 mg/kg/injection, schedule: Q01DX009 (ip), vehicle: Klucel (hydroxypropylcellulose) (HPC)

Structure (SMILES): CC(C(=O)O)c1ccccc1 (stereo not drawn)
- T/C (dose: 50.0 mg/kg/injection, schedule: Q01DX009 (ip), vehicle: other): 101 % of control
- T/C [1]: 106 % of control
- T/C [2]: 110 % of control

Structure (SMILES): CC(OC1C(N)C(O)OC(CO)C1O)C(=O)O (stereo not drawn)
- T/C (dose: 50.0 mg/kg/injection, schedule: Q01DX005 (ip), vehicle: saline): 103 % of control
- T/C (dose: 100.0 mg/kg/injection, schedule: Q01DX005 (ip), vehicle: saline): 109 % of control
- T/C (dose: 200.0 mg/kg/injection, schedule: Q01DX005 (ip), vehicle: saline): 107 % of control

Structure (SMILES): CCC(=O)O[C@H]1CC[C@H]2[C@@H]3CCC4=CC(=O)C[C@]4(C)[C@H]3CC[C@]12C
- T/C [3]: 100 % of control
- T/C [4]: 100 % of control
- T/C (dose: 100.0 mg/kg/injection, schedule: Q04DX003 (ip), vehicle: saline with Tween-80): 110 % of control
- T/C [5]: 113 % of control
- T/C (dose: 200.0 mg/kg/injection, schedule: Q04DX003 (ip), vehicle: saline with Tween-80): 105 % of control

Structure (SMILES): COc1ccc2c(c1)CCC(CC(C)=O)C2=O (stereo not drawn)
- T/C (dose: 100.0 mg/kg/injection, schedule: Q04DX003 (ip), vehicle: saline sonified): 104 % of control
- T/C (dose: 200.0 mg/kg/injection, schedule: Q04DX003 (ip), vehicle: saline sonified): 104 % of control
- T/C (dose: 400.0 mg/kg/injection, schedule: Q04DX003 (ip), vehicle: saline sonified): 104 % of control

Structure (SMILES): COc1c(Cl)cc(Cl)cc1Cl
- T/C [1]: 90 % of control
- T/C (dose: 100.0 mg/kg/injection, schedule: Q04DX003 (ip), vehicle: other): 90 % of control
- T/C [2]: 100 % of control
- T/C (dose: 200.0 mg/kg/injection, schedule: Q04DX003 (ip), vehicle: other): 105 % of control
- T/C (dose: 400.0 mg/kg/injection, schedule: Q01DX009 (ip), vehicle: other): 114 % of control
- T/C (dose: 400.0 mg/kg/injection, schedule: Q04DX003 (ip), vehicle: other): 110 % of control

Structure (SMILES): COC(=O)/C=C/c1c[nH]c2nccnc12
- T/C (dose: 25.0 mg/kg/injection, schedule: Q01DX009 (ip), vehicle: water): 104 % of control
- T/C (dose: 50.0 mg/kg/injection, schedule: Q01DX009 (ip), vehicle: water): 90 % of control and 112 % of control
- T/C (dose: 100.0 mg/kg/injection, schedule: Q01DX009 (ip), vehicle: water): 97 % of control and 109 % of control
- T/C (dose: 100.0 mg/kg/injection, schedule: Q04DX003 (ip), vehicle: water): 86 % of control
- T/C (dose: 200.0 mg/kg/injection, schedule: Q01DX009 (ip), vehicle: water): 115 % of control
- T/C (dose: 200.0 mg/kg/injection, schedule: Q04DX003 (ip), vehicle: water): 102 % of control
- T/C (dose: 300.0 mg/kg/injection, schedule: Q01DX009 (ip), vehicle: water): 106 % of control
- T/C (dose: 400.0 mg/kg/injection, schedule: Q01DX009 (ip), vehicle: water): 93 % of control
- T/C (dose: 400.0 mg/kg/injection, schedule: Q04DX003 (ip), vehicle: water): 102 % of control

Structure (SMILES): O=NN(CCCl)C(=O)Nc1cc2c3ccccc3ccc2c2ccccc12
- T/C [6]: 121 % of control

Structure (SMILES): COc1ccc(C(O)(CS(C)=O)c2cccs2)cc1 (stereo not drawn)
- T/C [4]: 107 % of control
- T/C [5]: 99 % of control

Structure (SMILES): Clc1nc2nc(C(Cl)(Cl)Cl)[nH]c2nc1Cl
- T/C [7]: 95 % of control
- T/C [8]: 108 % of control
- T/C [6]: 116 % of control

Structure (SMILES): CC1=NC2=NC(CCCC(=O)Nc3ccc(Cl)cc3)=NC3=CC=CC(=N1)N32
- T/C (dose: 25.0 mg/kg/injection, schedule: Q01DX009 (ip), vehicle: saline with Tween-80): 104 % of control
- T/C [3]: 95 % of control
- T/C [4]: 99 % of control

Structure (SMILES): CSc1ncc(C)c[n+]1-c1ccccc1
- T/C (dose: 50.0 mg/kg/injection, schedule: Q04DX002 (ip), vehicle: saline with Tween-80): 106 % of control
- T/C (dose: 100.0 mg/kg/injection, schedule: Q04DX002 (ip), vehicle: saline with Tween-80): 107 % of control

Structure (SMILES): CCOC(=O)C1C2OC(=O)C(C(=O)C2CN(CCCl)CCCl)C1C1CC=C(CC2=CCC(C3C4C(=O)OC(C(CN(CCCl)CCCl)C4=O)C3C(=O)OCC)CC2)CC1 (stereo not drawn)
- T/C (dose: 6.25 mg/kg/injection, schedule: Q01DX009 (ip), vehicle: Klucel (hydroxypropylcellulose) (HPC)): 169 % of control
- T/C [7]: 165 % of control (2×) and 178 % of control
- T/C [8]: 176 % of control and 184 % of control and 189 % of control
- T/C [6]: 184 % of control and 208 % of control and 215 % of control
- T/C (dose: 100.0 mg/kg/injection, schedule: Q01DX009 (ip), vehicle: Klucel (hydroxypropylcellulose) (HPC)): 265 % of control and 291 % of control and 109 % of control

Structure (SMILES): CC(C)c1nsc2c1C(=O)NC(C(C)(C)C)N2 (stereo not drawn)
- T/C [3]: 109 % of control
- T/C [4]: 89 % of control
- T/C [5]: 95 % of control
